Calls of active or inactive are those of the source. How the calls were made is not given here.
These compounds were tested against Peptidyl-prolyl cis-trans isomerase FKBP1A (Homo sapiens) (UniProt P62942) (assay: FKBP12 binders, biophysical, NMR detection (AID 608)). Conditions: NMR binding, purified FKBP12.
Peptidyl-prolyl cis-trans isomerase FKBP1A (Homo sapiens), sequence (P62942 whole entry, looked up): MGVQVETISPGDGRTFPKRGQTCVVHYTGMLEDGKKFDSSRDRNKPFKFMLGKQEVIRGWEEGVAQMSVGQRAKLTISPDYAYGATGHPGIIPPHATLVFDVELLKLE
Work on Nc1ccccc1-c1nc2ccccc2[nH]1 yielded a Kd of 0.286 mM. In the case of CC(C)NC(=O)c1nc2ccccc2s1, the Kd is reported as > 4 mM (inactive). With O=C(O)CCCC(=O)Nc1nccs1 the Kd was > 4 mM (inactive). In the case of O=C1N/C(=N\c2ccccn2)SC1Cc1ccccc1 (configuration not stated), the Kd is reported as > 4 mM (inactive). In the case of COc1cc(OC)c2c(=O)c(-c3ccc4c(c3)OCO4)coc2c1, the Kd is reported as > 4 mM (inactive). With c1ccc2c(c1)ncn2CCn1cnc2ccccc21 the Kd was > 4 mM (inactive). In the case of Nc1ccccc1C(=O)N1CCNC(=O)C1, the Kd is reported as > 4 mM (inactive). O=c1c(-c2ccccc2)coc2cc(O)cc(O)c12 was tested, and the Kd was > 4 mM (inactive). NC(=O)CN1CC(c2ccccc2)CC1=O (configuration not stated) was tested, and the Kd was > 4 mM (inactive). For N=c1c2c3c(sc2ncn1N)CCCC3, the Kd was > 4 mM (inactive). In the case of CCOC(=O)c1csc(C)n1, the Kd is reported as > 4 mM (inactive). With O=c1[nH]cnc2c1nnn2Cc1ccccc1 the Kd was > 4 mM (inactive). For CC1(C)C(=O)C=C[C@@]2(C)C1C[C@@H](O)[C@]1(C)C2CC[C@@]2(C)[C@H](c3ccoc3)OC(=O)[C@H]3O[C@]321 (some centres not stated), the Kd was > 4 mM (inactive). Cn1c(NCC(=O)O)nc2c1c(=O)[nH]c(=O)n2C was tested, and the Kd was > 4 mM (inactive). In the case of O=C1NC(=S)NC(=O)C1=Cc1cccs1, the Kd is reported as > 4 mM (inactive). COc1ccc2c(c1)OCC(Cc1ccc(OC)c(OC)c1)C2=O (configuration not stated) was tested, and the Kd was > 4 mM (inactive). With CN1CCC(NC(=O)c2cccnc2)CC1 the Kd was > 4 mM (inactive). With CN1C(=O)c2ccc(N=C3NC(=O)CS3)cc2C1=O the Kd was > 4 mM (inactive). In the case of CCOC(=O)Nc1ccc2c(C)cc(=O)oc2c1, the Kd is reported as > 4 mM (inactive). Cc1cc(O)cc(O)c1C(=O)O was tested, and the Kd was > 4 mM (inactive). With O=C1c2ccccc2-c2ncnc3cccc1c23 the Kd was > 4 mM (inactive). In the case of CO[C@H]1[C@@H](O)[C@@H](C)O[C@H](O[C@H]2CCC3(C)C4CCC5(C)[C@@H](C6=CC(=O)OC6)CC[C@]5(O)[C@@H]4CC[C@]3(O)C2)[C@@H]1O (some centres not stated), the Kd is reported as > 4 mM (inactive). For Cc1cc(C)n2nc(NCc3ccccc3)nc2n1, the Kd was > 4 mM (inactive). COc1ccc(C[C@H]2NC[C@H](O)[C@H]2OC(C)=O)cc1 was tested, and the Kd was > 4 mM (inactive). CC1(C(=O)O)CC2C=CC1C2 (configuration not stated) was tested, and the Kd was > 4 mM (inactive). In the case of CCCCn1c(=O)cc(O)c2ccccc21, the Kd is reported as > 4 mM (inactive). In the case of Cn1cc(C(=O)N/N=C/c2ccccc2)ccc1=O, the Kd is reported as > 4 mM (inactive). CN(C)C(=O)CCNS(=O)(=O)c1ccccc1 was tested, and the Kd was > 4 mM (inactive). With COc1ccc2c(c1OC)C(=O)N(c1ncn[nH]1)C2 the Kd was > 4 mM (inactive). In the case of CCc1ccccc1OCc1nnc(N)s1, the Kd is reported as > 4 mM (inactive). In the case of COc1nc(C)ccc1-c1noc(-c2ccncc2)n1, the Kd is reported as > 4 mM (inactive). COc1cc2cc[n+]3cc4c(OC)c(OC)ccc4cc3c2cc1OC was tested, and the Kd was > 4 mM (inactive). For NCc1nnnn1-c1ccccc1, the Kd was > 4 mM (inactive). For COCc1cc(=O)oc2cc(N)ccc12, the Kd was > 4 mM (inactive). With Cc1csc2nc(N)nn12 the Kd was > 4 mM (inactive). In the case of O=C(Nn1cnnc1)c1cc2c(s1)CCCCC2, the Kd is reported as > 4 mM (inactive). With Fc1ccc(-c2n[nH]c(=S)n2CC2CCCO2)cc1 (configuration not stated) the Kd was > 4 mM (inactive). COc1cc2c(cc1O)CCNC2C (configuration not stated) was tested, and the Kd was > 4 mM (inactive). Cc1noc(C)c1C(=O)NC1=NCCS1 was tested, and the Kd was > 4 mM (inactive). CCn1cnc2cc([N+](=O)[O-])ccc2c1=O was tested, and the Kd was > 4 mM (inactive). For COc1ccc([C@H]2Oc3c(I)c(OC)cc(OC)c3C[C@@H]2O)cc1OC, the Kd was > 4 mM (inactive). With CC1(C)C(=O)[C@@H]2C[C@@]3(O)C4=CC(=O)O[C@@H](c5ccoc5)[C@]4(C)CCC3C(C)(C2=O)[C@H]1CC(=O)O (some centres not stated) the Kd was > 4 mM (inactive). For Cc1cc(Cl)ccc1OCC(=O)N1CCOCC1, the Kd was “inactive”. With CN(C)C(=O)CSc1nc(N)cc(=O)[nH]1 the Kd was > 4 mM (inactive). With COc1cc2c(cc1OC)[C@@H]1C(=O)c3ccc4c(c3O[C@@H]1CO2)C=CC(C)(C)O4 the Kd was > 4 mM (inactive). With CC(=O)CC1(O)C(=O)Nc2ccccc21 (configuration not stated) the Kd was > 4 mM (inactive). CC(C)NC1CS(=O)(=O)CC1O (configuration not stated) was tested, and the Kd was > 4 mM (inactive). For CCN(CC)S(=O)(=O)c1cccc2nsnc12, the Kd was > 4 mM (inactive). With CCOC(=O)Cc1cc(=O)n2[nH]c(C)cc2n1 the Kd was > 4 mM (inactive). In the case of O=S(=O)(Nc1ccc2c(c1)oc1ccccc12)N1CCCCC1, the Kd is reported as > 4 mM (inactive). For CC(=O)N1CC2(C)CN(C(C)=O)CC(C)(C1)C2, the Kd was > 4 mM (inactive). For COCC(=O)N1CCCc2ccccc21, the Kd was > 4 mM (inactive). In the case of Cn1c2c(c(=O)n(C)c1=O)CN(Cc1ccco1)CN2, the Kd is reported as > 4 mM (inactive). For Cc1nc(-c2ccccc2)sc1C(N)=O, the Kd was > 4 mM (inactive). With O=c1c2ccccc2oc2ccccc12 the Kd was > 4 mM (inactive). In the case of NC(=O)Nc1cccc(C(F)(F)F)c1, the Kd is reported as > 4 mM (inactive). O=C(O)c1ccc2c(c1)OCO2 was tested, and the Kd was > 4 mM (inactive). With Cc1cc(O)c(NC(=O)c2ccco2)cc1C the Kd was > 4 mM (inactive). In the case of Cc1nnc2sc(-c3csc4c3CCCC4)nn12, the Kd is reported as > 4 mM (inactive). COc1ccccc1-c1noc(-c2ccco2)n1 was tested, and the Kd was > 4 mM (inactive). In the case of CC(=O)c1cc2c(cc1O)OC(C)(C)C=C2, the Kd is reported as > 4 mM (inactive). With Oc1ccc(-n2ccnc2)cc1 the Kd was > 4 mM (inactive). For COc1ccc(/C=C2/C(=O)N=C(N)N2C)cc1OC, the Kd was > 4 mM (inactive). For O=C(Nc1nnc(-c2ccco2)o1)C1=COCCO1, the Kd was > 4 mM (inactive). For COc1ccccc1-c1nc(=S)[nH][nH]1, the Kd was > 4 mM (inactive). For O=c1[nH]c2ccccc2c(=O)n1CCCO, the Kd was > 4 mM (inactive). With CCOc1nc(C)ccc1-c1noc(-c2ccncc2)n1 the Kd was > 4 mM (inactive). Cc1nc2ccccc2c(=O)n1NC(=O)C1CCCCC1 was tested, and the Kd was > 4 mM (inactive). In the case of CCCCC(Nc1n[nH]c(=O)[nH]c1=O)C(=O)O (configuration not stated), the Kd is reported as > 4 mM (inactive). With COC(=O)CCC(C)[C@H]1CCC2C3C(C[C@H](O)[C@@]21C)[C@@]1(C)CC[C@@H](O)C[C@H]1C[C@H]3O (some centres not stated) the Kd was > 4 mM (inactive). For O=C(CSc1ccccc1)N1CCC2(CC1)OCCO2, the Kd was > 4 mM (inactive). CS(=O)(=O)c1cccc(C(=O)Nc2nccs2)c1 was tested, and the Kd was > 4 mM (inactive). COC(=O)c1scc(S(C)(=O)=O)c1-n1cccc1 was tested, and the Kd was > 4 mM (inactive). CC(=O)NC(=S)Nc1nc2ccccc2n1C(C)=O was tested, and the Kd was > 4 mM (inactive). CNc1nnc(Cc2csc(N)n2)s1 was tested, and the Kd was > 4 mM (inactive). With O=C(NC(=S)NN1CCOCC1)c1cccs1 the Kd was > 4 mM (inactive). NC1C2CC3CC1CC(O)(C3)C2 (configuration not stated) was tested, and the Kd was > 4 mM (inactive). For COC(=O)c1ccc2snnc2c1, the Kd was > 4 mM (inactive). Cc1ccc(SCCN2C(=O)NC(C)(C)C2=O)cc1 showed a Kd of 0.27 mM. CCOc1ccc(C(=O)c2ccc(OC)c(O)c2O)cc1 was tested, and the Kd was > 4 mM (inactive). O=C(O)Cn1cc(C(F)(F)F)ccc1=O was tested, and the Kd was > 4 mM (inactive). In the case of NS(=O)(=O)c1ccc(NC(=O)c2cccs2)cc1, the Kd is reported as > 4 mM (inactive). For CN(C)c1ccc(N2C(=O)CCC2=O)cc1, the Kd was > 4 mM (inactive). In the case of Cc1ccc(SCc2nc(-c3ccncc3)no2)cc1, the Kd is reported as “inactive”. With COc1ccccc1Nc1nncc(=O)[nH]1 the Kd was > 4 mM (inactive). CN(C)/C=N/S(=O)(=O)c1ccccc1 was tested, and the Kd was > 4 mM (inactive). For Cc1cc(C)nc(N2CC(=O)N(C)C2=N)n1, the Kd was > 4 mM (inactive). In the case of COc1cc2nc(N3CCNCC3)nc(N)c2cc1OC, the Kd is reported as > 4 mM (inactive). In the case of O=C(c1cc2ccccc2o1)N1CCOCC1, the Kd is reported as “inactive”. In the case of Cc1nccc2c1[nH]c1ccccc12, the Kd is reported as > 4 mM (inactive). CN(C)C(=O)C12CCC(C)(C(=O)O1)C2(C)C (configuration not stated) was tested, and the Kd was > 4 mM (inactive). In the case of CCOC(=O)c1nc2ccccc2c(=O)n1N, the Kd is reported as > 4 mM (inactive). O=C1CC(=O)N(c2cccc(Cl)c2)N1 was tested, and the Kd was > 4 mM (inactive). For CC(C)CC(=O)NC1CCSC1=O (configuration not stated), the Kd was > 4 mM (inactive). With Nc1cccc(-c2cnco2)c1 the Kd was > 4 mM (inactive). With C=CCN1CC[C@]23c4c5ccc(O)c4OC2C(=O)CC[C@@]3(O)[C@H]1C5 (some centres not stated) the Kd was > 4 mM (inactive). C=C[C@](C)(O)CCC=C(C)C was tested, and the Kd was > 4 mM (inactive). In the case of Cc1noc(C)c1C(=O)N1CCc2ccccc21, the Kd is reported as > 4 mM (inactive). For CN1CCC(NC(=S)NC2CC2)CC1, the Kd was > 4 mM (inactive). For CC(C(N)=O)N1C(=O)c2ccccc2C1=O (configuration not stated), the Kd was > 4 mM (inactive). C[C@@H]1CC[C@@]2(OC1)OC1CC3C4CC=C5C[C@@H](O)CC[C@]5(C)C4CC[C@]3(C)C1[C@@H]2C (some centres not stated) was tested, and the Kd was > 4 mM (inactive). For O=C(Nc1ccncc1)Nc1ccc(F)cc1F, the Kd was > 4 mM (inactive). In the case of NC1=NC(=O)C(CC(=O)Nc2ccccc2F)S1 (configuration not stated), the Kd is reported as > 4 mM (inactive). In the case of Cc1nc(-c2cccc(N)c2)cs1, the Kd is reported as > 4 mM (inactive). For Cc1nc(N2CCOCC2)[nH]c(=O)c1C, the Kd was > 4 mM (inactive). For N=Nc1c(O)[nH]c2ccccc12, the Kd was > 4 mM (inactive). With CC(C)[C@@H]1CC[C@@H](C)C[C@H]1OC(=O)c1ccccc1 the Kd was > 4 mM (inactive). For Cc1ccc(F)cc1NC(=O)c1ccc2c(c1)OCO2, the Kd was > 4 mM (inactive). For Nc1cc(=O)[nH]c(SCC(=O)NC2CCCCC2)n1, the Kd was > 4 mM (inactive). For Cc1csc2nc3ccccc3c(=O)n12, the Kd was > 4 mM (inactive). With CC(C)(C)C(=O)Nc1nnc(SCC(N)=O)s1 the Kd was > 4 mM (inactive). O=S(=O)(Nc1ccc(F)cc1)N1CCOCC1 was tested, and the Kd was > 4 mM (inactive). For OCCNc1nc2ccc(Cl)cc2[nH]1, the Kd was > 4 mM (inactive). With O=C1CSC(=O)N1CNc1ccccc1 the Kd was > 4 mM (inactive). With O=C1c2cccnc2C(=O)N1Cc1ccco1 the Kd was > 4 mM (inactive). With Cc1cc2ncc(C(=O)Nc3ccccc3)c(C)n2n1 the Kd was “inactive”. O=C1CSC(=Nc2ccc(O)cc2)N1 was tested, and the Kd was > 4 mM (inactive). In the case of CCOC(=O)CN1C(=O)c2ccccc2C1=O, the Kd is reported as > 4 mM (inactive). In the case of COc1c(O)cc(O)cc1O, the Kd is reported as > 4 mM (inactive). In the case of CC(C)=CC1C(CO)C1(C)C (configuration not stated), the Kd is reported as > 4 mM (inactive). In the case of c1ccn(Cc2ccncc2)c1, the Kd is reported as > 4 mM (inactive). With O=C(NC1=NCCS1)c1ccc(Cl)s1 the Kd was > 4 mM (inactive).
